Biological target: T1, GABAA receptor β1 subunit (α1β1γ2SEM tri-heteromer) (Rattus norvegicus, UniProt P15431+P62813, P15431:DEL334-439/P15431:INS334GT/P62813:DEL340-408)
T1 construct: gene Gabrb1; purified α1β1γ2SEM receptor-Fab complex (M3/M4 loop deletions in α1 and β1; full-length γ2S); with GABAA receptor α1 subunit (Gabra1, P62813) and γ2S subunit (Gabrg2, P18508); 8E3 Fab
Assay: radioligand saturation binding (scintillation proximity assay)

T1 sequence (P15431 with tags, fused parts or gaps DEL334-439/INS334GT): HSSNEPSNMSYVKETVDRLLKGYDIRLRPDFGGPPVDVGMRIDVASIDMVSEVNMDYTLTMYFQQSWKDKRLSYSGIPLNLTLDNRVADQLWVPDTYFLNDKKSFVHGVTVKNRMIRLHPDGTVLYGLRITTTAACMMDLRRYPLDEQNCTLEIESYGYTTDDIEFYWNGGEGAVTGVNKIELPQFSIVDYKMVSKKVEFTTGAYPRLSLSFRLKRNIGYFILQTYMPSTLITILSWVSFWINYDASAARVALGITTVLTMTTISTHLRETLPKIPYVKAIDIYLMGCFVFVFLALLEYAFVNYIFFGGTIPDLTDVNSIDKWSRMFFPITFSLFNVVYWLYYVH
T1 sequence (P62813 with tags, fused parts or gaps DEL340-408): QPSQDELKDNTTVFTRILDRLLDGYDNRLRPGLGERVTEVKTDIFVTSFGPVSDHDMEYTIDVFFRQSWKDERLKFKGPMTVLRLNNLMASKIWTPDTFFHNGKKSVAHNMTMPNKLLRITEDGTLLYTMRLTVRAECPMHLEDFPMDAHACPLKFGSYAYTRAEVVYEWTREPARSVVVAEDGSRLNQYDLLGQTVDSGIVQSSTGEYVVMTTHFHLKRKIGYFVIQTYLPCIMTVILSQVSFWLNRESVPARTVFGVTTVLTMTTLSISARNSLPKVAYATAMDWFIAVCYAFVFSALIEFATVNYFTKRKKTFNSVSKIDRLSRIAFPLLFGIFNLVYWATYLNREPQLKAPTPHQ
T1 sequence (P18508 39-466 partner): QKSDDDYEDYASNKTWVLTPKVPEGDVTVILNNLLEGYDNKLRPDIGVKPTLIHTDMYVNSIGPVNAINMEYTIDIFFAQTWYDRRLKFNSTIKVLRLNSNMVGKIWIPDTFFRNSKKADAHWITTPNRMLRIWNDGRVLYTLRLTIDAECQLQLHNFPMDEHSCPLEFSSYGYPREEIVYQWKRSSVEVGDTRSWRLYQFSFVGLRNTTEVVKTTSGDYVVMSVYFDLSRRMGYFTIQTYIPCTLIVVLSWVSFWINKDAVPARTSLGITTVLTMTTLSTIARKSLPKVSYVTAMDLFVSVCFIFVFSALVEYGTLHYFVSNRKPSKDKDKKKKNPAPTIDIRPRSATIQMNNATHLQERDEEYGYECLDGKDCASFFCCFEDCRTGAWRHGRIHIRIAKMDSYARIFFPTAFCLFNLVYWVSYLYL

NCc1cc(=O)[nH]o1 [muscimol]
Kd: 109 nM

From PMC6086659 (eLife, 2018)
